Consider 20 molecules from PubChem BioAssay (NCI).

“And” between values parts separate entries of the source, which are not always exact repeats. Identical values can stand only once.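 Method: 48-hour compound exposure of cells in 96-well plates, five concentrations, linear interpolation of endpoints. At the GI50, growth is halved. TGI denotes the concentration required for complete inhibition of growth.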

Holding throughout (assay): inhibition of tumour cell growth, NCI panel, 48 h
The subject of test [1] is SN12C renal.
The test system of test [2] is UACC-257 melanoma.
Test [3] relates to U251 CNS.
In test [4] the test system is NCI-H460 lung.
In test [5] the test system is ACHN renal.
In test [6] the test system is SNB-19 CNS.
In test [7] the test system is HS 578T breast.
Test [8] concerns MOLT-4 leukemia.
Test [9] relates to M14 melanoma.
The subject of test [10] is SK-MEL-5 melanoma.

For the molecule `CNNC(=N\S(=O)(=O)c1cc(C(=O)Nc2ccc(Cl)cc2)c(Cl)cc1SCc1ccccc1)/N=C/c1ccc([N+](=O)[O-])s1`, the GI50 was 6.6 µM in test [1]; above 100 µM in test [2]; above 100 µM in test [3]; 3.91 µM in test [4]; above 100 µM in test [5]; above 100 µM in test [6]. Also, the GI50 was 38.2 µM in [7], above 100 µM in test [8], 10.1 µM in [9] and 6.57 µM in [10]. The TGI was above 100 µM in test [1]; above 100 µM in [2]; above 100 µM in test [3]; above 27.7 µM in test [4]; above 100 µM in test [5]; above 100 µM in test [6]. Besides, the TGI is above 100 µM in [7], above 100 µM in test [8], above 100 µM in test [9] and above 45.9 µM in test [10].
As for `c1ccc(-c2nnc(Nc3ccc4c(c3)OCCO4)o2)c(NCc2ccncc2)c1`, the GI50 in test [1] was 0.0579 µM; in test [2], 3.97 µM; in [3], 0.0369 µM; in [4], 0.0313 µM; in [5], 0.0784 µM; in [6], 0.0536 µM. In addition, the GI50 in [7] is 0.0281 µM; in test [8], 0.0485 µM; in test [9], 0.0223 µM; in test [10], 0.0257 µM. In addition, the TGI in test [1] was above 64.6 µM; in [2], above 62.4 µM; in test [3], above 35.5 µM; in [4], 15.2 µM; in test [5] it was 14.4 µM; in [6], above 100 µM. Moreover, the TGI in test [7] was above 69.4 µM; in [8] it was above 100 µM; in [9], 0.273 µM; in [10], 0.153 µM.
In the case of `C/C(=N\NC(=O)c1ccccc1O)c1cccc(/C(C)=N/NC(=O)c2ccccc2O)n1`, the GI50 in test [1] was 0.731 µM; in test [2], 16.5 µM and > 100 µM; in [3], 2.02 µM and 0.502 µM; in [4] it was 0.535 µM; in test [5], 0.668 µM; in test [7] it was above 100 µM. Moreover, the values for the GI50 in [8] and in [10] were 0.424 µM and 0.621 µM, respectively. Also, the TGI was above 100 µM in test [1]; above 100 µM in test [2]; 15.8 µM and > 100 µM in test [3]; 74.1 µM and > 100 µM in test [4]; 50.5 µM and > 62.9 µM in test [5]; 74.2 µM and > 100 µM in [6]. The TGI is above 100 µM in test [7]; 17.5 µM and > 100 µM in [8]; above 100 µM in test [9]; 44.9 µM and > 48 µM in test [10].
For `COc1cc2nc(N3CCCC3)nc(Nc3ccccc3)c2cc1OC`, the GI50 is 1.72 µM in test [1]; 1.86 µM in test [2]; 1.02 µM in test [3]; 1.86 µM in test [4]; 1.38 µM in [5]; 1.65 µM in test [6]. Also, the GI50 is 1.97 µM in test [7], 1.54 µM in [8], 1.83 µM in [9] and 1.71 µM in test [10]. The TGI is 3.24 µM in test [1]; 3.79 µM in [2]; 2.45 µM in [3]; 3.59 µM in [4]; 2.67 µM in test [5]; 3.14 µM in test [6]. For the same molecule, the TGI in [7] came out at 4.45 µM; in test [8], 4.33 µM; in [9], 3.56 µM; in test [10], 3.12 µM.
Regarding `O=C(O)C[O][Sb][O]CC(=O)O`, the GI50 in [1], in [3], in test [4], in [5], in test [6] and in [7] was above 100 µM each time. The GI50 in [8], in test [9] and in test [10] was above 100 µM throughout. The TGI in [1], in test [3], in test [4], in test [5], in test [6] and in [7] was above 100 µM throughout. For the same molecule, the TGI in test [8], in test [9] and in test [10] was above 100 µM in each case.
For the molecule `CC1=CC2=C(C(N)=O)C(=O)OC2(C)C(c2ccccc2)C1` (stereo not given), the TGI in test [1], in [2], in test [3], in test [4], in test [5] and in test [6] was above 100 µM in each case. Further, the TGI in test [7], in [8] and in test [9] was above 100 µM in each case.
In the case of `CCN(CC)CCCOc1cc(O)c2c(=O)cc(-c3ccccc3)oc2c1`, the GI50 in test [1] is 10.1 µM; in test [2], 3.4 µM; in test [3] it was 10.6 µM; in [4], 4.2 µM; in test [5] it was 6.16 µM; in test [6] it was 12.1 µM. For the same molecule, the GI50 in [7] is 10.2 µM; in [8], 3.29 µM; in test [10] it was 3.16 µM. For the same molecule, the TGI in [1] stood at 22.8 µM; in test [2], 12.5 µM; in test [3], 22.4 µM; in [4], 14.6 µM; in test [5] it was 19 µM; in test [6] it was 24.5 µM. Further, the TGI in test [7] is 26 µM; in test [8], 8.71 µM; in test [10] it was 11.8 µM.
Consider `CO/N=C(/COc1c(-c2ccccc2)oc2ccccc2c1=O)c1ccc(OC)cc1`, for which the GI50 in test [1] is 76.7 µM; in test [2], above 100 µM; in test [3], above 100 µM; in test [5], above 100 µM; in test [7], above 100 µM; in test [9], above 100 µM. Further, the TGI in [1], in test [2], in [3], in test [5], in test [7] and in [9] was above 100 µM in each case.
For the molecule `NC(CSc1nc2ccccn2c1[N+](=O)[O-])C(=O)O` (stereo not given), the TGI in test [1], in test [2], in test [3], in test [4], in test [5] and in [6] was above 100 µM each time. Besides, the TGI in [7], in test [9] and in test [10] was above 100 µM in each case.
`CCC[CH2][Ge]([CH2]CCC)([CH2]CCC)[O]C(=O)C(O)c1ccccc1` (stereo not given): the GI50 was 4.58 µM in test [1]; 1.08 µM in test [2]; 2.32 µM in test [3]; 3.03 µM in [4]; 4.23 µM in test [5]; 18.5 µM in test [6]. In addition, the GI50 is 0.602 µM in [8], 2.51 µM in test [9] and 1.46 µM in test [10]. For the same molecule, the TGI in test [1] is 23.4 µM; in [2] it was 15.5 µM; in test [3] it was 20.3 µM; in test [4], 34.9 µM; in test [5], 19.8 µM; in test [6], above 63.7 µM. Further, the TGI was above 39.4 µM in test [8], 12 µM in test [9] and 13.2 µM in [10].
Take `Cc1ccc(S(=O)(=O)SCc2ccccc2CSS(=O)(=O)c2ccc(C)cc2)cc1`: the TGI was 33.6 µM in test [1]; above 100 µM in test [2]; 89.5 µM in test [3]; above 100 µM in test [4]; above 100 µM in test [5]; above 100 µM in [6]. In addition, the TGI in [8] is 43.9 µM; in test [9], 47.3 µM; in test [10] it was above 100 µM.
Take `CC(=O)Nc1ccccc1-c1cnc2ccccc2n1`: the TGI in test [1], in test [2], in test [3], in [4], in [5] and in test [6] was above 100 µM throughout. Besides, the TGI in [8], in test [9] and in test [10] was above 100 µM each time.
Turning to `Nc1ccc2c(c1)CC1c3ccccc3C(C2)c2ccccc21`, the TGI in test [1], in [2], in test [3], in [4], in test [5] and in [6] was above 100 µM each time. Moreover, the TGI in [8], in test [9] and in test [10] was above 100 µM throughout.
With `Cc1ccccc1NC(=O)C1C(=O)N(c2ccccc2C)C(=O)/C1=N\N` (stereo not given), the TGI in [1], in test [2], in test [3], in test [4], in [5] and in test [6] was above 100 µM each time. Besides, the TGI in [8], in test [9] and in test [10] was above 100 µM each time.
On to `CC(=O)OC1C/C(C)=C/CCC(C)/C=C/C2(C)CCC(C(C)(C)O)C12` (stereo not given), for which the TGI in test [1] is 96.4 µM; in test [2] it was above 100 µM; in test [3] it was above 100 µM; in test [4] it was above 100 µM; in test [5], above 100 µM; in [6], above 100 µM. The TGI in test [8], in test [9] and in [10] was above 100 µM each time.
Regarding `CCC1(C(=O)OC)CCc2c(OC)ccc(OC)c2C1=O` (stereo not given), the TGI in test [1], in test [2], in test [3], in test [4], in [5] and in test [6] was above 100 µM in each case. Moreover, the TGI in [8], in test [9] and in [10] was above 100 µM throughout.
For the molecule `COc1cc2ccnc3c2c(c1OC)-c1ccc(=O)ccc1-3`, the GI50 in test [1] was 31 µM; in test [2] it was 25.4 µM; in [3], 27.6 µM; in test [4], 20.7 µM; in [5] it was 19.3 µM; in [6], 55.3 µM. Also, the GI50 in test [7] is 36.6 µM; in test [8] it was 3.6 µM; in test [10], 17.1 µM. Also, the TGI in test [1] was above 100 µM; in test [2] it was 63.5 µM; in [3] it was 96.9 µM; in [4], above 100 µM; in test [5], 44.6 µM; in [6] it was above 100 µM. Also, the TGI in test [7] is above 100 µM; in test [8] it was 18.7 µM; in test [10], 47.9 µM.
Consider `COc1cc2c(c(OC)c1OC)-c1ccc(SC)c(=O)cc1[C@@H](NCc1cccc(C#N)c1)CC2`, for which the GI50 in [1] was below 0.0075 µM; in test [2], 6.18 µM; in [5], 0.0134 µM; in test [6], below 0.0075 µM; in [8] it was below 0.0075 µM; in [9] it was below 0.0075 µM. Further, the TGI in [1] was 66.1 µM; in [2], above 75 µM; in test [3], 0.0434 µM; in [4] it was 8.97 µM; in [5], above 75 µM; in [6] it was above 75 µM. In addition, the TGI was determined as 69.2 µM in test [8] and 0.0641 µM in test [10].
For `Cc1ccc(C2(O)CC(c3ccc([N+](=O)[O-])o3)=NN2C(=O)COc2ccccc2Cl)cc1` (stereo not given), the TGI is above 49.1 µM in test [1]; 53.6 µM in [2]; 28.2 µM in test [3]; above 31.6 µM in test [4]; 63.2 µM in [5]; above 100 µM in [6]. Also, the results for the TGI in test [8], in [9] and in [10] were 96.1 µM, 15.4 µM and 8.54 µM, respectively.
Regarding `CC[C@H](C)[C@H](NC(=O)Nc1ccccc1)C(=O)N(C)[C@H](C[C@@H](OC(C)=O)c1nc(C(=O)N[C@@H](Cc2ccccc2)C[C@H](C)C(=O)OC)cs1)C(C)C`, the GI50 in test [1] is 8.31 µM; in [2] it was above 100 µM; in test [3], 3.16 µM; in test [4], 2.83 µM; in [5], 8.09 µM; in test [6] it was 5.05 µM. The GI50 in [7] is 2.47 µM; in test [9], 2.19 µM; in test [10] it was 1.73 µM. For the same molecule, the TGI in test [1], in test [2], in test [3], in test [4], in test [5] and in test [6] was above 100 µM in each case. Also, the figures for the TGI in test [7], in test [9] and in test [10] were 8.73 µM, 5.84 µM and 12.4 µM, respectively.
